Data reported in US8003660B2, “Modulators of muscarinic receptors” (Vertex Pharmaceuticals Incorporated, priority 2006, dated 2011).

Columns and labels:
Type in all cases: cell-based
M1 muscarinic receptor = target: T1, M1 muscarinic receptor (Homo sapiens, UniProt P11229); assay: Functional mobilization of intracellular calcium (FLIPR) in CHO cells expressing M1; settings: for EC50: CHO cells expressing M1, FLIPR calcium; for Emax: CHO, 100% = maximum response obtained with the Carbachol control, read-out: M1 Efficacy
T1 construct: expressed in transfected cells; host or cells: CHO (M1-CHO)
T1 sequence (P11229 1-460): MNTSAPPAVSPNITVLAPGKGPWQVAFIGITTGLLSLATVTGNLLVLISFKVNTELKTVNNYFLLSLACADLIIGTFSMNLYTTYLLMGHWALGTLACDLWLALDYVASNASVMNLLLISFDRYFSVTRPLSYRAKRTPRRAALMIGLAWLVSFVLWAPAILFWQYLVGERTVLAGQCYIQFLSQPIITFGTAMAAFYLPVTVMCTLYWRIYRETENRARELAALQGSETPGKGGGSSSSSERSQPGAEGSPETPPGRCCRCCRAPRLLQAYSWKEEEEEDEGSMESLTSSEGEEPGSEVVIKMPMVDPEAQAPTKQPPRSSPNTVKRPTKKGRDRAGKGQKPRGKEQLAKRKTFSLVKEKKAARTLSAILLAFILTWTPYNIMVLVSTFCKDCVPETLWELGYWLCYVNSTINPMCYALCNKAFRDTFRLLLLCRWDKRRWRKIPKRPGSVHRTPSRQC
Procedure, shortened: (§1)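 Recombinant CHO cells loaded with Fluo-3 AM or Calcium 3 dye in pH 7.4 buffer containing 1 mM probenecid, with 0.5% final DMSO. For agonism, compound is added directly. For inhibition, it is preincubated 15 min, or co-applied, before carbachol at EC80. FLIPR fluorescence (ex 488, em 540 nm) is recorded for 60 s.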

M2 muscarinic receptor = target: T2, M2 muscarinic receptor (Homo sapiens, UniProt P08172); assay: Functional mobilization of intracellular calcium (FLIPR) in CHO cells expressing M2; settings: for EC50: CHO cells expressing M2, FLIPR calcium; for Emax: CHO, 100% = maximum response obtained with the Carbachol control, read-out: M2 Efficacy
T2 construct: expressed in transfected cells; host or cells: CHO (M2-CHO)
T2 sequence (P08172 1-466): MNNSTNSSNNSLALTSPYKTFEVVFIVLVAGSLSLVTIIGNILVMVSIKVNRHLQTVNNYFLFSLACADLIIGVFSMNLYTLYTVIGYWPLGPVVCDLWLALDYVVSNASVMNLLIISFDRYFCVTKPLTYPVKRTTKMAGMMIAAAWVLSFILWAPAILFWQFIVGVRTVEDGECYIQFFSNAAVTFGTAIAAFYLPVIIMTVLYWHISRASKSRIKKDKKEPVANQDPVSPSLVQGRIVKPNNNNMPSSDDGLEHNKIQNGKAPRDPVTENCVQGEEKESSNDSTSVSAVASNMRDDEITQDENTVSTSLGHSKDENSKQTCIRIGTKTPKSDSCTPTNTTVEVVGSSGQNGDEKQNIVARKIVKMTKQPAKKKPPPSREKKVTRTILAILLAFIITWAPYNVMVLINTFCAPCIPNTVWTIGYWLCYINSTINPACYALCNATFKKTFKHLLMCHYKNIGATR
Procedure, shortened: as §1

M3 muscarinic receptor = target: T3, M3 muscarinic receptor (Homo sapiens, UniProt P20309); assay: Functional mobilization of intracellular calcium (FLIPR) in CHO cells expressing M3; settings: for EC50: CHO cells expressing M3, FLIPR calcium; for Emax: CHO, 100% = maximum response obtained with the Carbachol control, read-out: M3 Efficacy
T3 construct: expressed in transfected cells; host or cells: CHO (M3-CHO)
Procedure, shortened: as §1

M4 muscarinic receptor = target: T4, M4 muscarinic receptor (Homo sapiens, UniProt P08173); assay: Functional mobilization of intracellular calcium (FLIPR) in CHO cells expressing M4; settings: for EC50: CHO cells expressing M4, FLIPR calcium; for Emax: CHO, 100% = maximum response obtained with the Carbachol control, read-out: M4 Efficacy
T4 construct: expressed in transfected cells; host or cells: CHO (M4-CHO)
T4 sequence (P08173 1-479): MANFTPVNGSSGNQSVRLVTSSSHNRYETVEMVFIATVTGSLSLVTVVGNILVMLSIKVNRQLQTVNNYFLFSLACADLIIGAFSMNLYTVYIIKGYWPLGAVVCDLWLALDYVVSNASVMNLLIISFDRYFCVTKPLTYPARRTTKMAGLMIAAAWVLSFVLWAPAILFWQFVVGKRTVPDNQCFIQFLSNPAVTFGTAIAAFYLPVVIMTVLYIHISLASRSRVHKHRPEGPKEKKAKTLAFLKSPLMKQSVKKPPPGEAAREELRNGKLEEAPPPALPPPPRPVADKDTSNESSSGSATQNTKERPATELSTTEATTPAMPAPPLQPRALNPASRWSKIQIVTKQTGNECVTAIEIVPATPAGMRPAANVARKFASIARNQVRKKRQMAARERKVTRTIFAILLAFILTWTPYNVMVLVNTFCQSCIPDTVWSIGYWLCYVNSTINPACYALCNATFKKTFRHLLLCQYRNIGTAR
Procedure, shortened: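 Calcium flux is read on FLIPR over 60 sec at 488/540 nm in muscarinic-receptor CHO lines. Antagonist mode adds carbachol at EC80 after 15 min compound preincubation or with simultaneous co-application. Agonist mode adds compound alone. Cells carry Fluo-3 or Calcium 3 dye in probenecid-containing pH 7.4 buffer, 0.5% DMSO final.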

T3 sequence (P20309 whole entry): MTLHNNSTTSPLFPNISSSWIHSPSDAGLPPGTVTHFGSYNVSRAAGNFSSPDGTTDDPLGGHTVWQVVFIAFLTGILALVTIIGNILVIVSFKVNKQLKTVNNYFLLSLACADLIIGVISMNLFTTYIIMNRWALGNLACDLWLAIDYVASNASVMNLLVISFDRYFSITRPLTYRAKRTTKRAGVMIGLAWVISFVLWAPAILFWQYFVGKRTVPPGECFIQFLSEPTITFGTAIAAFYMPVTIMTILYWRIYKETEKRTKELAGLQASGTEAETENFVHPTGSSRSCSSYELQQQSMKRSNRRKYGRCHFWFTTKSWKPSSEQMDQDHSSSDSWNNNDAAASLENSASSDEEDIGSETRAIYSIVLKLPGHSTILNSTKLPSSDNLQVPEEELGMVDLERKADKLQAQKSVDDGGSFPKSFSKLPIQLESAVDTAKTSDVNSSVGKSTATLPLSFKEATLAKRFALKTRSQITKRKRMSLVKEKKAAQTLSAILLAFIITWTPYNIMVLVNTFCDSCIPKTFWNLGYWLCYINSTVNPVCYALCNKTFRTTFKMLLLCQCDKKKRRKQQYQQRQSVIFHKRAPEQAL

Structure (SMILES)	EC50 (M1 muscarinic receptor) [nM]	Emax (M1 muscarinic receptor) [%]	EC50 (M2 muscarinic receptor) [nM]	Emax (M2 muscarinic receptor) [%]	EC50 (M3 muscarinic receptor) [nM]	Emax (M3 muscarinic receptor) [%]	EC50 (M4 muscarinic receptor) [nM]	Emax (M4 muscarinic receptor) [%]
C[C@H](C(=O)N[C@@H]1CCC2(CCN(CCC(C)(C)C)CC2)c2ccccc21)N1CCCC1=O [compound 157]	2000 to 5000	25 to 100	< 2000	< 25	> 5000	< 25	< 2000	25 to 100
CC(C)(C)CCN1CCC2(CC[C@H](NC(=O)C3CC3)c3ccccc32)CC1 [compound 158]	< 2000	25 to 100	< 2000	25 to 100	> 5000	< 25	< 2000	25 to 100
CC(=O)N[C@H]1CCC2(CCN(CCC(C)C)CC2)c2ccccc21 [compound 159]	< 2000	25 to 100	> 5000	< 25	> 5000	< 25	< 2000	25 to 100
CC(=O)N1CCC[C@@H]1C(=O)N[C@H]1CCC2(CCN(CCC(C)(C)C)CC2)c2ccccc21 [compound 160]	< 2000	25 to 100	> 5000	< 25	> 5000	< 25	< 2000	25 to 100
CN([C@H]1CCC2(CCN(CCC(C)(C)C)CC2)c2ccccc21)S(C)(=O)=O [compound 161]	< 2000	25 to 100	> 5000	< 25	> 5000	< 25	< 2000	25 to 100
CC(=O)N[C@H](C)C(=O)N[C@@H]1CCC2(CCN(CCC(C)(C)C)CC2)c2ccccc21 [compound 162]	> 5000	25 to 100	> 5000	< 25	> 5000	< 25	< 2000	25 to 100
CC(=O)N[C@H](C)C(=O)N[C@@H]1CCC2(CCN(CCC(C)(C)C)CC2)c2cc(F)ccc21 [compound 163]	< 2000	25 to 100	< 2000	25 to 100	> 5000	< 25	< 2000	25 to 100
CCC(=O)N(C)[C@H]1CCC2(CCN(CCC(C)(C)C)CC2)c2ccccc21 [compound 164]	< 2000	25 to 100	> 5000	< 25	> 5000	< 25	< 2000	25 to 100
Cn1cnc(C(=O)N[C@H]2CCC3(CCN(CCC(C)(C)C)CC3)c3cc(F)ccc32)c1 [compound 165]	< 2000	25 to 100	< 2000	25 to 100	> 5000	< 25	< 2000	25 to 100
CCN(C(=O)C1CCN(C(=O)OC)CC1)[C@H]1CCC2(CCN(CCC(C)(C)C)CC2)c2ccccc21 [compound 166]	> 5000	25 to 100	> 5000	< 25	> 5000	< 25	< 2000	25 to 100
CC(C)[C@@H](C(=O)N[C@H]1CCC2(CCN(CCC(C)(C)C)CC2)c2ccccc21)N1CCCC1=O [compound 167]	< 2000	25 to 100	> 5000	< 25	> 5000	< 25	< 2000	25 to 100
CC(C)(C)CCN1CCC2(CC[C@@H](N3CCCC3=O)c3ccc(F)cc32)CC1 [compound 168]	2000 to 5000	< 25	> 5000	< 25	> 5000	< 25	< 2000	25 to 100
CC(C)(C)CCN1CCC2(CC[C@@H](NC(=O)CN3CCCCCC3=O)c3ccccc32)CC1 [compound 169]	< 2000	25 to 100	< 2000	< 25	> 5000	< 25	< 2000	25 to 100
CCN(C(=O)C1CCOCC1)[C@H]1CCC2(CCN(CCC(C)(C)C)CC2)c2ccccc21 [compound 170]	> 5000	< 25	> 5000	< 25	> 5000	< 25	< 2000	25 to 100
CC(=O)N(C)CCC(=O)N[C@H]1CCC2(CCN(CCC(C)(C)C)CC2)c2ccccc21 [compound 171]	< 2000	25 to 100	< 2000	25 to 100	> 5000	< 25	< 2000	25 to 100
C=CCCCN1CCC2(CC[C@H](NC(C)=O)c3ccccc32)CC1 [compound 172]	< 2000	25 to 100	2000 to 5000	25 to 100	> 5000	< 25	< 2000	25 to 100
CC(C)(C)CCN1CCC2(CCC(=O)c3ccccc32)CC1 [compound 173]	< 2000	25 to 100	< 2000	25 to 100	> 5000	< 25	< 2000	25 to 100
COC(=O)N(C)[C@H]1CCC2(CCN(CCC(C)(C)C)CC2)c2ccccc21 [compound 174]	2000 to 5000	25 to 100	> 5000	< 25	> 5000	< 25	< 2000	25 to 100
CN(C)C(=O)N[C@H]1CCC2(CCN(CCC(C)(C)C)CC2)c2ccccc21 [compound 175]	> 5000	< 25	> 5000	< 25	> 5000	< 25	< 2000	25 to 100
CN(C(=O)C1CC1)[C@H]1CCC2(CCN(CCC(C)(C)C)CC2)c2ccccc21 [compound 176]	2000 to 5000	< 25	> 5000	< 25	> 5000	< 25	< 2000	25 to 100
CC(=O)N[C@H]1CCC2(CCN(CCC(C)(C)C)CC2)c2cc(F)ccc21 [compound 177]	< 2000	25 to 100	< 2000	25 to 100	> 5000	< 25	< 2000	25 to 100
CN(C(=O)C1CCCC1)[C@H]1CCC2(CCN(CCC(C)(C)C)CC2)c2ccccc21 [compound 178]	> 5000	< 25	> 5000	< 25	> 5000	< 25	< 2000	25 to 100
CC(=O)N[C@H]1CCC2(CCN(CCCCC(C)(C)C#N)CC2)c2ccccc21 [compound 179]	< 2000	25 to 100	> 5000	< 25	> 5000	< 25	> 5000	< 25
